The source of these data is patent US5505922A, “Anesthetic pharmaceutical combination” (University of Maryland at Baltimore, priority 1995, dated 1996).

For series [1] the following is noted: acutely, 250 mg per ml of lithium; cited from earlier work.
Series [2] has as its system desheathed ferret vagus nerves (C fibers). Briefly: In vitro recording of electrically stimulated compound action potentials from desheathed ferret vagus nerves (depression of action potential). The class given is cell-based. As to conditions: for IC50: read-out: ED50 (the source's name); for shift in the dose/response curve: lithium Lockes versus sodium Lockes, FIGS. 1 to 4; for in vitro ED50 reduction relative to control values: lithium-containing versus sodium Lockes vehicle. On the procedure:
To test if replacement of lithium ions for sodium ions reduced the required local anesthetic dose, an in vitro experiment was performed, wherein the electrically stimulated compound action potentials were recorded from desheathed ferret vagus nerves, which are an enriched source of C fibers.
The ferret vagus nerves were removed bilaterally and were desheathed under a Zeiss dissecting microscope with a magnification of 2.5X. A single desheathed nerve was then placed in a chamber interlaced with electrodes for stimulating and recording action potentials. The central section of the nerve passes through the central well containing either buffer or drug in buffer.
The stimulation voltage was adjusted to provide maximal action potential. The stimulus duration was 0.5 milliseconds. Stimulation and recording parameters were programmed, and stimuli were presented at 2 second intervals. Five successive action potentials were averaged and stored as an estimate of action potential activity each minute. The intervening […] action potential were discarded.
Control nerves were bathed in a 100% sodium Locke's solution, synthesized in the manner set forth in Synthesis Example 1 above. Experimental nerves were bathed in lithium Locke's solution, comprising 35 mol Eq. % lithium, 65 mol Eq. % sodium Locke's solution, synthesized in the manner set forth in Synthesis Example 2 above.
The electrical stimuli were applied to one end of the nerve, while on the other end, the resulting action potential propagation was measured using an oscilloscope and the recording computer. Varying doses of mepivacaine were administered to the nerves so that dose/response curves could be constructed under both ionic conditions.
Following a period of equilibration in a buffer where control recordings are made, the well was emptied and a molar concentration of a test anesthetic was added. Various molar concentrations of mepivacaine, an amide type local anesthetic (Sterling-Winthrop Research Institute, Rensselear, N.Y.), and procaine, an ester type local anesthetic (Sigma Chemical Co., St. Louis, Mo.) were tested in both sodium and lithium Locke's buffer vehicles, as described above.
Compound action potentials having two distinct peaks, labeled as A and C peaks, are observed and were recorded at 2 second intervals. Five consecutive action potentials were recorded for each one minute time period over 30 minutes. At 30 minutes, the anesthetic was removed and the chamber was perfused with buffer. Recording was continued during this 30 minute period. The averaged data, collected every 2 minutes, was then analyzed to determine the slope of the action potential, the height of the action potential, the area under the curve of the action potential and the conduction velocity. This was done for both the A and C peaks.
The data were then plotted as percent of control versus time. Other molar concentrations were administered from the dose where there was no effect on the A peak, and to a dose where the action potential was depressed to zero.
Inspection of the data allowed recording of the maximal observed effect for each of the concentrations studied. This observed maximum (or an asymptotic value derived from an appropriate equation) was used to generate log-probit linear regressions of the dose versus the effect. This is accomplished by conversion of the percent effect to the corresponding probit value, conversion of the dose to its log10 and fitting a first degree polynomial to the resultant data by the method of least squares.
The 95% confidence band was calculated and plotted for the data. From the equations of the best fit line and the confidence bands, doses estimated to produce 50, 90 and 95% depression of the four parameters were calculated for both the A and C peaks of the action potentials.
Table 1 was prepared using the results of each of the concentrations onsets (T 85%). […]

Series [3] deals with tooth pulps of the central incisors of rabbits. The series can be described thus: In vivo electrically stimulated tooth pulp pain model (rabbit tooth pulp assay). As to the method:
To confirm the results of the in vitro experiments in vivo, an electrically stimulated tooth pulp pain model was used. The tooth pulps of the central incisors of rabbits were exposed using a high speed burr and dental drill.
Electrodes were inserted into the pulp chambers and the voltage required to elicit a lick/chew response was measured. The percentage analgesia was calculated from the following equation:
MPE=((TV-CV)/(10 V-CV))×100
wherein TV is the voltage after treatment; CV is the control voltage, and 10 V are the maximum volts applied.
The percent analgesia was recorded 0, 5, 10, 15, 30, 60, 120 and 180 minutes after injection.

Setting [4] is: control (sodium Lockes) buffer vehicle.
[5] abbreviates: in the lithium-containing buffer vehicle.

The structures appear in SMILES notation. Read-outs that look alike come from different tables or passages of the source.

For `[Li]` [lithium], the acute tolerability result in series [1] is listed as “well tolerated”.

On to `Cc1cccc(C)c1NC(=O)C1CCCCN1C` (stereo not shown) [mepivacaine], for which the IC50 in series [2] (setting [4]) worked out at 420 µM; in series [2] (setting [5]), 270 µM. Further, the “shift in the dose/response curve” value in series [2] was “not parallel and demonstrated that the effect of lithium was most pronounced at lower concentrations”. In addition, the “in vitro ED50 reduction relative to control values” in series [2] was “reduced to half their control values”. In addition, the “shift in the dose/response curves” value in series [3] (lithium Lockes versus sodium Lockes, FIGS. 5 and 6) is “not parallel and demonstrated that the effect of lithium was most pronounced at lower concentrations”. Besides, in series [3] (lithium Lockes versus standard sodium Lockes vehicle), the “in vivo ED50 reduction relative to standard sodium Lockes vehicle” value is given as “reduced to one third of its value”. The ED50 in series [3] (lithium present in the buffer vehicle) was found to be 0.69%; in series [3] (without lithium (sodium Lockes)), 1.93%.

For `CCN(CC)CCOC(=O)c1ccc(N)cc1` [procaine], the IC50 in series [2] (setting [4]) was 540 µM. In addition, the IC50 in series [2] (setting [5]) was determined as 190 µM. For the same compound, in series [2], the “shift in the dose/response curve” value is “not parallel and demonstrated that the effect of lithium was most pronounced at lower concentrations”; the “in vitro ED50 reduction relative to control values” is on record as “reduced to half their control values”.
